Assay results taken from the supplement of paper PMC10307832.

Tests used:
Test in all cases: relative viability (nuclei count vs DMSO), 5 days (fraction); higher = more cells survive
Vandetanib + Navitoclax = compound: COc1cc2/c(=N/c3ccc(Br)cc3F)nc[nH]c2cc1OCC1CCN(C)CC1 [Vandetanib] + CC1(C)CCC(c2ccc(Cl)cc2)=C(CN2CCN(c3ccc(C(=O)NS(=O)(=O)c4ccc(N[C@H](CCN5CCOCC5)CSc5ccccc5)c(S(=O)(=O)C(F)(F)F)c4)cc3)CC2)C1 [Navitoclax] (partner 0.5 µM)
Method in brief: (§1)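 For relative viability, nuclei counts in treated wells were divided by those in vehicle wells. Lung cancer cell lines had been pin-tool dosed in 1536-well plates the day after seeding and cultured for 5 days, then fixed and stained in one step (final 0.05% Triton X-100, 1% formaldehyde, 1 ug/ml Hoechst) and imaged at 4×. Doses were one drug alone or a fixed anchor-drug dose plus five library-drug doses (not always all listed) in √10 steps, and values are duplicate-plate medians.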

CUDC-101 + Decitabine = compound: C#Cc1cccc(Nc2ncnc3cc(OC)c(OCCCCCCC(=O)NO)cc23)c1 [CUDC-101] + Nc1ncn([C@H]2C[C@H](O)[C@@H](CO)O2)c(=O)n1 [Decitabine] (partner 2 µM)
Method in brief: as §1

NVP-TAE684 + Phenformin = compound: COc1cc(N2CCC(N3CCN(C)CC3)CC2)ccc1Nc1ncc(Cl)c(Nc2ccccc2S(=O)(=O)C(C)C)n1 [NVP-TAE684] + N=C(N)NC(=N)NCCc1ccccc1 [Phenformin] (partner 250 µM)
Method in brief: as §1

CUDC-101 + Luminespib = compound: C#Cc1cccc(Nc2ncnc3cc(OC)c(OCCCCCCC(=O)NO)cc23)c1 [CUDC-101] + CCNC(=O)c1noc(-c2cc(C(C)C)c(O)cc2O)c1-c1ccc(CN2CCOCC2)cc1 [Luminespib] (partner 0.01 µM)
Method in brief: as §1

Cell Line	relative viability (Vandetanib + Navitoclax; first compound 0.02 µM)	relative viability (Vandetanib + Navitoclax; first compound 0.06325 µM)	relative viability (Vandetanib + Navitoclax; first compound 0.2 µM)	relative viability (Vandetanib + Navitoclax; first compound 0.6325 µM)	relative viability (Vandetanib + Navitoclax; first compound 2 µM)	relative viability (CUDC-101 + Decitabine; first compound 0.01 µM)	relative viability (CUDC-101 + Decitabine; first compound 0.03162 µM)	relative viability (CUDC-101 + Decitabine; first compound 0.1 µM)	relative viability (CUDC-101 + Decitabine; first compound 0.3162 µM)	relative viability (CUDC-101 + Decitabine; first compound 1 µM)	relative viability (NVP-TAE684 + Phenformin; first compound 0.2 µM)	relative viability (NVP-TAE684 + Phenformin; first compound 0.6325 µM)	relative viability (NVP-TAE684 + Phenformin; first compound 2 µM)	relative viability (CUDC-101 + Luminespib; first compound 0.01 µM)	relative viability (CUDC-101 + Luminespib; first compound 0.03162 µM)	relative viability (CUDC-101 + Luminespib; first compound 0.1 µM)	relative viability (CUDC-101 + Luminespib; first compound 0.3162 µM)	relative viability (CUDC-101 + Luminespib; first compound 1 µM)
COR-L 105	0.833	0.888	0.826	0.804	0.353	0.67	0.752	0.622	0.723	0.351	0.457	0.259	0.211	0.768	0.701	0.845	0.831	0.476
ChaGo-K-1	0.939	0.998	0.942	1.24	0.489	0.558	0.47	0.555	0.505	0.492	0.533	0.457	0.339	0.74	0.522	0.625	0.709	0.609
EKVX	0.934	0.869	0.882	0.753	0.806	0.322	0.446	0.33	0.323	0.299	0.24	0.23	0.208	0.916	0.677	0.749	0.982	0.81
EMC-BAC-2	1.11	1.11	0.76	1.12	1.06	1.09	0.925	0.948	0.952	0.654	0.402	0.464	0.319	1.29	1.08	1.2	1.22	0.973
EPLC-272H	1.06	1.03	1.14	1	1.09	0.327	0.363	0.341	0.301	0.309	0.282	0.267	0.146	0.141	0.554	0.598	0.269	0.257
H3255	0.5	0.421	0.332	0.161	0.108	0.643	0.549	–	0.227	0.15	0.348	0.397	0.453	0.845	0.648	–	0.541	0.439
HARA	1.1	0.996	1.13	1.07	1.15	0.446	0.515	–	0.464	0.254	0.397	0.394	0.304	0.465	0.682	0.616	0.311	0.185
HCC-15	0.685	0.702	0.682	0.756	0.649	0.579	0.628	0.655	0.621	0.443	0.495	0.396	0.238	0.169	0.279	0.299	0.559	0.596
HCC-44	1.05	1.02	0.93	0.976	0.947	0.908	1.03	0.912	0.906	0.913	0.263	0.141	0.0733	0.947	0.909	1.03	1.03	1.06
HCC-827	1.04	0.975	0.993	0.464	0.153	0.309	0.248	0.177	0.149	0.155	0.377	0.41	0.372	0.531	0.241	0.278	0.217	0.197
HOP-62	0.975	1.07	0.999	1.18	1.01	0.288	0.238	0.224	0.22	0.229	0.545	0.734	0.788	0.931	0.875	0.902	0.859	0.794
LC-2-ad	0.44	0.482	0.548	0.403	0.243	0.872	0.774	0.829	0.717	0.621	0.574	0.5	0.456	1.04	0.953	1.15	0.974	0.707
LCLC-97TM1	0.399	0.556	0.345	0.403	0.411	0.286	0.24	0.227	0.228	0.191	0.4	0.382	0.113	0.849	0.857	0.771	0.765	0.502
LK-2	0.761	0.759	0.913	0.936	0.721	0.262	0.329	0.384	0.2	0.125	0.364	0.238	0.233	0.248	0.196	0.19	0.179	0.178
LOU-NH91	0.709	0.561	0.553	0.535	0.445	0.804	0.706	0.76	0.807	0.711	0.631	0.601	0.531	0.395	0.216	0.334	0.385	0.316
LU99A	0.794	0.73	0.734	0.679	0.761	0.824	0.823	0.9	0.831	0.657	0.912	0.886	0.659	0.224	0.247	0.245	0.261	0.248
